Values of other authors in article PMC4990482 (Nature chemical biology, 2016).

Tested on: EZH2

Compound: CC[C@H](C)n1cc(C)c2c(C(=O)NCc3c(C)cc(C)[nH]c3=O)cc(-c3ccc(N4CCNCC4)nc3)cc21 [GSK126]
- selectivity for EZH2 versus EZH1: > 150 fold
